Literature values as cited in patent US20190201418A1, “TREATMENT OF UTERINE FIBROIDS BY INTRAVAGINAL ADMINISTRATION OF A LOW DOSE OF SELECTIVE PROGESTERONE RECEPTOR MODULATOR (SPRM), ANTI-PROGESTIN, OR ANTI-PROGESTATIONAL AGENT” (ARSTAT, INC., priority 2011, published 2019).

Experiments:
liver enzymes = settings: oral
[1] = system: symptomatic uterine fibroids; settings: oral 5-mg and 10-mg tablets, Phase III
glucocorticoid blockade = settings: in vivo
[2] = system: endometrial lining of the uterus; settings: oral
[3] = oral mifepristone 10 mg/day or higher

## COCC(=O)[C@@]1(OC(C)=O)CC[C@H]2[C@@H]3CCC4=CC(=O)CCC4=C3[C@@H](c3ccc(N(C)C)cc3)C[C@@]21C [CDB-4124]
Liver enzymes
  safety finding leading to suspension of the Phase III studies: significant increases in liver enzymes

## CC(=O)O[C@]1(C(C)=O)CC[C@H]2[C@@H]3CCC4=CC(=O)CCC4=C3[C@@H](c3ccc(N(C)C)cc3)C[C@@]21C [ulipristal acetate]
[1]
  efficacy and safety in the treatment of symptomatic uterine fibroids: confirmed the efficacy and safety

## CC#C[C@]1(O)CC[C@H]2[C@@H]3CCC4=CC(=O)CCC4=C3[C@@H](c3ccc(N(C)C)cc3)C[C@@]21C [mifepristone]
Uterine fibroids; oral mifepristone 2.5 mg/day
  reduction of uterine volume and incidence of amenorrhea: appreciably smaller reduction of uterine volume and a lower incidence of amenorrhea
Uterine fibroids; oral mifepristone 5 mg
  ability to reduce uterine volume and eliminate fibroid-related symptoms: limited
Uterine fibroids; [3]
  incidence of side effects (endometrial hyperplasia, hot flashes, elevated liver enzymes): seems to be greater than desired
  reduction of uterine and fibroid volumes and related symptoms: effective in the reduction of uterine and fibroid volumes and related symptoms
Glucocorticoid blockade
  dose at which glucocorticoid blockade is reported: ≥ 50 mg

## COC[C@]1(OC)CC[C@H]2[C@@H]3CCC4=CC(=O)CCC4=C3[C@@H](c3ccc(/C=N/O)cc3)C[C@@]21C [asoprisnil]
[2]
  safety finding leading to termination of the Phase III studies: changes in the endometrial lining of the uterus that resulted in additional invasive procedures in some patients
